Laboratory results: patent US12534452B2, “N-(1H-imidazol-2-yl)benzamide compound and pharmaceutical composition comprising the same as active ingredient” (KAINOS MEDICINE, INC., priority 2019, dated 2026)

target: IRAK4 (Homo sapiens (Human), UniProt Q9NWZ3); test: In vitro IRAK4 phosphorylation activity assay; format: biochemical; conditions: [γ-33P]-ATP, myelin basic protein substrate, 40 minutes at room temperature; categories
Procedure, shortened: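 Radiometric filter-binding assay, no compound–kinase preincubation; 8 mM MOPS pH 7.0, 0.2 mM EDTA, 10 mM Mg acetate, 0.33 mg/mL myelin basic protein substrate, [γ-33P]-ATP. Reaction 40 min at room temperature, stopped with phosphoric acid, scintillation counting; IC50 reported in categories.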

IRAK4, sequence (Q9NWZ3 whole entry): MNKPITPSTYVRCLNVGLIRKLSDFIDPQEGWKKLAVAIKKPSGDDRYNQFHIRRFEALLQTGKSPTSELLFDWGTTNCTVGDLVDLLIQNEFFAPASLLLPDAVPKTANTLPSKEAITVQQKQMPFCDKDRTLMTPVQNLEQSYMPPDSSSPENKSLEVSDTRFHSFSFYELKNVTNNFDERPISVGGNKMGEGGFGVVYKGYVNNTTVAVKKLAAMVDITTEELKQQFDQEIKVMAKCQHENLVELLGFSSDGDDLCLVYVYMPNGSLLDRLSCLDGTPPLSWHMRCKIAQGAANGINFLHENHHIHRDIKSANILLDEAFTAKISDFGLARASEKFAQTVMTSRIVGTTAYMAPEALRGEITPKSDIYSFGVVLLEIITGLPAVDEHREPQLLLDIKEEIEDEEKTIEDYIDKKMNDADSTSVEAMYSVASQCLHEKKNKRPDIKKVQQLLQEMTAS

Cn1cc(-c2cccc(C(=O)Nc3nc(CCCCC(=O)N4CCC[C@H](C(=O)O)C4)cn3-c3ccccc3)c2)cn1 [Example 208, (S)-1-(5-(2-(3-(1-methyl-1H-pyrazol-4-yl)benzamido)-1-phenyl-1H-imidazol-4-yl)pentanoyl)piperidine-3-carboxylic acid] and Cn1cc(-c2cccc(C(=O)Nc3nc(CCCC(=O)N4CCC[C@@H](N)C4)cn3-c3ccccc3)c2)cn1 [Example 210, (R)—N-(4-(4-(3-aminopiperidin-1-yl)-4-oxobutyl)-1-phenyl-1H-imidazol-2-yl)-3-(1-methyl-1H-pyrazol-4-yl)benzamide] cannot be ordered by IC50: under 50 nM for the first, under 50 nM for the second.

Cn1cc(-c2cccc(C(=O)Nc3nc(CCCC(=O)N4CCC(N)CC4)cn3-c3ccccc3)c2)cn1 [Example 209, N-(4-(4-(4-aminopiperidin-1-yl)-4-oxobutyl)-1-phenyl-1H-imidazol-2-yl)-3-(1-methyl-1H-pyrazol-4-yl)benzamide] and Cn1cc(-c2cccc(C(=O)Nc3nc(CCCCC(=O)N4CCC(N)CC4)cn3-c3ccccc3)c2)cn1 [Example 213, N-(4-(5-(4-aminopiperidin-1-yl)-5-oxopentyl)-1-phenyl-1H-imidazol-2-yl)-3-(1-methyl-1H-pyrazol-4-yl)benzamide] cannot be ordered by IC50: under 50 nM for the first, under 50 nM for the second.

Cn1cc(-c2cccc(C(=O)Nc3nc(CCCC(=O)N4CCC[C@H](N)C4)cn3-c3ccccc3)c2)cn1 [Example 211, (S)—N-(4-(4-(3-aminopiperidin-1-yl)-4-oxobutyl)-1-phenyl-1H-imidazol-2-yl)-3-(1-methyl-1H-pyrazol-4-yl)benzamide] and Cn1cc(-c2cccc(C(=O)Nc3nc(CCCC(=O)N4CC[C@@H](N)C4)cn3-c3ccccc3)c2)cn1 [Example 212, (R)—N-(4-(4-(3-aminopyrrolidin-1-yl)-4-oxobutyl)-1-phenyl-1H-imidazol-2-yl)-3-(1-methyl-1H-pyrazol-4-yl)benzamide] cannot be ordered by IC50: under 50 nM for the first, under 50 nM for the second.

First: Cn1cc(-c2cccc(C(=O)Nc3nc(CCCC(=O)NC4CCNCC4)cn3-c3ccccc3)c2)cn1 [Example 214, 3-(1-methyl-1H-pyrazol-4-yl)-N-(4-(4-oxo-4-(piperidin-4-ylamino)butyl)-1-phenyl-1H-imidazol-2-yl)benzamide]
Second: Cn1cc(-c2cccc(C(=O)Nc3nc(CCCC(=O)N[C@H]4CC[C@H](N)CC4)cn3-c3ccccc3)c2)cn1 [Example 215, N-(4-(4-(((1R,4R)-4-aminocyclohexyl)amino)-4-oxobutyl)-1-phenyl-1H-imidazol-2-yl)-3-(1-methyl-1H-pyrazol-4-yl)benzamide]
The IC50 of the first is higher: over 100 nM for the first, 50 to 100 nM for the second. The second is the more potent here.

Cn1cc(-c2cccc(C(=O)Nc3nc(CCCC(=O)Nc4cc[nH]n4)cn3-c3ccccc3)c2)cn1 [Example 217, N-(4-(4-((1H-pyrazol-3-yl)amino)-4-oxobutyl)-1-phenyl-1H-imidazol-2-yl)-3-(1-methyl-1H-pyrazol-4-yl)benzamide] and Cn1cc(-c2cccc(C(=O)Nc3nc(CCCCNC(=O)C4CC4)cn3-c3ccccc3)c2)cn1 [Example 227, N-(4-(4-(cyclopropanecarboxamido)butyl)-1-phenyl-1H-imidazol-2-yl)-3-(1-methyl-1H-pyrazol-4-yl)benzamide] cannot be ordered by IC50: under 50 nM for the first, under 50 nM for the second.

CN1CCN(N(C)C(=O)CCCc2cn(-c3ccccc3)c(NC(=O)c3cccc(-c4cnn(C)c4)c3)n2)CC1 [Example 218, N-(4-(4-(methyl(4-methylpiperazin-1-yl)amino)-4-oxobutyl)-1-phenyl-1H-imidazol-2-yl)-3-(1-methyl-1H-pyrazol-4-yl)benzamide] and CN1CCN(CCCCc2cn(-c3ccccc3)c(NC(=O)c3cccc(-c4cnn(C)c4)c3)n2)CC1 [Example 221, 3-(1-methyl-1H-pyrazol-4-yl)-N-(4-(4-(4-methylpiperazin-1-yl)butyl)-1-phenyl-1H-imidazol-2-yl)benzamide] cannot be ordered by IC50: under 50 nM for the first, under 50 nM for the second.

Cn1cc(-c2cccc(C(=O)Nc3nc(CCCCN4CCCCC4)cn3-c3ccccc3)c2)cn1 [Example 219, 3-(1-methyl-1H-pyrazol-4-yl)-N-(1-phenyl-4-(4-(piperidin-1-yl)butyl)-1H-imidazol-2-yl)benzamide] and Cn1cc(-c2cccc(C(=O)Nc3nc(CCCCCCN4CCCCC4)cn3-c3ccccc3)c2)cn1 [Example 220, 3-(1-methyl-1H-pyrazol-4-yl)-N-(1-phenyl-4-(6-(piperidin-1-yl)hexyl)-1H-imidazol-2-yl)benzamide] cannot be ordered by IC50: under 50 nM for the first, under 50 nM for the second.

Cn1cc(-c2cccc(C(=O)Nc3nc(CCCCCCN4CCCC4)cn3-c3ccccc3)c2)cn1 [Example 222, 3-(1-methyl-1H-pyrazol-4-yl)-N-(1-phenyl-4-(6-(pyrrolidin-1-yl)hexyl)-1H-imidazol-2-yl)benzamide] and Cn1cc(-c2cccc(C(=O)Nc3nc(CCCCCCN4CCCCCC4)cn3-c3ccccc3)c2)cn1 [Example 223, N-(4-(6-(azepan-1-yl)hexyl)-1-phenyl-1H-imidazol-2-yl)-3-(1-methyl-1H-pyrazol-4-yl)benzamide] cannot be ordered by IC50: under 50 nM for the first, under 50 nM for the second.

Cn1cc(-c2cccc(C(=O)Nc3nc(CCCCN4CCCC4=O)cn3-c3ccccc3)c2)cn1 [Example 224, 3-(1-methyl-1H-pyrazol-4-yl)-N-(4-(4-(2-oxopyrrolidin-1-yl)butyl)-1-phenyl-1H-imidazol-2-yl)benzamide] and Cn1cc(-c2cccc(C(=O)Nc3nc(CCCCCCN4CCCC4=O)cn3-c3ccccc3)c2)cn1 [Example 225, 3-(1-methyl-1H-pyrazol-4-yl)-N-(4-(6-(2-oxopyrrolidin-1-yl)hexyl)-1-phenyl-1H-imidazol-2-yl)benzamide] cannot be ordered by IC50: under 50 nM for the first, under 50 nM for the second.

Cn1cc(-c2cccc(C(=O)Nc3nc(CCCCCCN4C(=O)CCC4=O)cn3-c3ccccc3)c2)cn1 [Example 226, N-(4-(6-(2,5-dioxopyrrolidin-1-yl)hexyl)-1-phenyl-1H-imidazol-2-yl)-3-(1-methyl-1H-pyrazol-4-yl)benzamide] and Cn1cc(-c2cccc(C(=O)Nc3nc(CCCCCCNC(=O)C4CC4)cn3-c3ccccc3)c2)cn1 [Example 228, N-(4-(6-(cyclopropanecarboxamido)hexyl)-1-phenyl-1H-imidazol-2-yl)-3-(1-methyl-1H-pyrazol-4-yl)benzamide] cannot be ordered by IC50: under 50 nM for the first, under 50 nM for the second.

First: O=C(CCCc1cn(-c2ccccc2)c(NC(=O)c2cccc(-c3cn[nH]c3F)c2)n1)NC1CC1 [Example 229, N-(4-(4-(cyclopropylamino)-4-oxobutyl)-1-phenyl-1H-imidazol-2-yl)-3-(5-fluoro-1H-pyrazol-4-yl)benzamide]
Second: Cn1ncc(-c2cccc(C(=O)Nc3nc(CCCC(=O)NC4CC4)cn3-c3ccccc3)c2)c1F [Example 232, N-(4-(4-(cyclopropylamino)-4-oxobutyl)-1-phenyl-1H-imidazol-2-yl)-3-(5-fluoro-1-methyl-1H-pyrazol-4-yl)benzamide]
The IC50 of the first is lower: under 50 nM for the first, 50 to 100 nM for the second.

CN1CCN(C(=O)CCCc2cn(-c3ccccc3)c(NC(=O)c3cccc(-c4cn[nH]c4F)c3)n2)CC1 [Example 230, 3-(5-fluoro-1H-pyrazol-4-yl)-N-(4-(4-(4-methylpiperazin-1-yl)-4-oxobutyl)-1-phenyl-1H-imidazol-2-yl)benzamide] and O=C(Nc1nc(CCCC(=O)N2CCCCC2)cn1-c1ccccc1)c1cccc(-c2cn[nH]c2F)c1 [Example 231, 3-(5-fluoro-1H-pyrazol-4-yl)-N-(4-(4-oxo-4-(piperidin-1-yl)butyl)-1-phenyl-1H-imidazol-2-yl)benzamide] cannot be ordered by IC50: under 50 nM for the first, under 50 nM for the second.
